Assay results reported in US12686704B2, “Procoagulant peptides and use thereof” (RAMBAM MED-TECH LTD., priority 2021, dated 2026).

Key:
[1] = system: citrated pooled normal human blood; test: Thromboelastography (TEG) of citrated pooled normal human blood; details: for Angle / K / MA (maximal amplitude) / R (time to clot formation) / SP / thrombus strength (maximal amplitude, MA), in words / time to clot formation (R), in words: 5 μg/ml with calcium; for Angle / K / MA (maximal amplitude) / R (time to clot formation) / SP: blood left 4 hours at room temperature, representative TEG curve FIG. 1B; for thrombus strength (maximal amplitude, MA), in words / time to clot formation (R), in words: vs control
Description: (§1) FIGS. 1A-1C include vertical bar graphs and thromboelastography (TEG) curves, showing that peptide 16 and peptide 16AC increase coagulation. Peptide 16 and 16AC were studied in an assay of purified proteins that included lipidated TF (4 nM), factor VIIa (40 nM), factor X (1.4 μM) and assay buffer. Factor X activated form (Xa) level was studied using a chromogenic substrate (1 mM). […] Bovine factor Xa diluted in the assay buffer was used to generate a standard curve. Without addition of TF (two right columns), no factor Xa was generated. […] (1B) A citrated pooled normal human blood sample (n=3) was left for 4 hours at room temperature in order to expose TF in bloods cells. Following this period, the peptides 16 and 16AC were added (5 μg/ml) along with calcium. […] Representative TEG curves are shown. (1C) The study presented in FIG. 1B was repeated 3 times with different pooled plasma. […] Peptide 16 (non-modified); peptide 16 comprising a C-terminal amid group (16A); peptide 16 comprising an N-terminal acetyl group (16C); and peptide 16 comprising a C-terminal amid group and an N-terminal acetyl group (16AC). In 1B: for control—SP min=11.2; R min=12.8; K min=3.8, Angle deg=52.0; and MA mm=47.9, for Peptide 16—SP min=5.2; R min=6.4; K min=2.8, Angle deg=63.3; and MA mm=50.4, and for Peptide 16AC—SP min=4.7; R min=5.6; K min=2.5, Angle deg=63.1; and MA mm=53.8.
A citrated pooled normal human blood sample (n=3) was left for 4 hours at room temperature in order to expose TF in bloods cells. Following this period, the peptides 16 and 16AC were added (5 μg/ml) along with calcium. […] Representative images are shown (FIG. 1B). The study from B section was repeated 3 times with different pooled blood.

[2] = system: human umbilical vein endothelial cells (HUVEC); test: HUVEC proliferation, XTT assay; format: cell-based; details: 2.5 μg/ml and 5 μg/ml; 48 hour; FIG. 5A
Description: FIGS. 5A-5B include vertical bar graphs showing that heparanase procoagulant peptides induce human umbilical vein endothelial cells (HUVEC) proliferation. (5A) HUVEC cells were seeded in 96 wells plate (5,000 cells/well). Increasing concentration of peptides 16 and 16AC (2.5 μg/ml, and 5 μg/ml) were added to the cells. […] (5B) Similar experiment as described in 5A, but 10 ng/ml of peptide 7 (TFPI-2 derived inhibitory peptide) was added to the cells for 1 hour prior to the addition of peptide 16 (5 μg/ml) or 16AC (5 μg/ml).
Briefly, HUVEC cells were seeded in 96 wells plate (5,000 cells/well). Increasing concentration of peptides 16 and 16AC (2.5 μg/ml, and 5 μg/ml) were added to the cells.

[3] = target: lipidated TF, factor VIIa, factor X (Homo sapiens, UniProt P13726); test: Factor X activation assay of purified proteins (chromogenic substrate); format: biochemical; details: peptides at 5 μg/ml and 10 μg/ml; compared to control; FIG. 1A
Description: as §1
Peptides 16, 16C, 16A and 16AC were studied in an assay of purified proteins that included lipidated TF (0.004 μM), factor VIIa (0.04 μM), factor X (1.4 μM) and assay buffer. Factor X activated form (Xa) level was studied using a chromogenic substrate (1 mM). […] Bovine factor Xa diluted in the assay buffer was used to generate a standard curve. Without addition of TF (two right columns), no factor Xa was generated.

[4] = system: HUVEC cells; test: HUVEC migration, scratch (artificial gap) assay; format: cell-based, human; details: 10 μg/ml; 4 hours; compared to the control and the non-modified peptide 16
Description: FIG. 11 includes micrographs showing that procoagulant peptides increase endothelial cells migration. HUVEC cells were seeded in 35 mm dishes. At confluence of 90%, artificial gap was created using 1,000-μl standard pipette tip. Plate was washed twice with PBS to remove cell debris and incubated with either peptide 16 or 16AC (10 μg/ml). Representative photos of the scratched area after 4 hours are presented. Images were visualized through ×50 magnitude, with 0.82 MDC objective lens, captured with a Nikon E995 digital camera (Nikon, Tokyo, Japan), and processed with Adobe Photoshop software (Adobe Systems, San Jose, CA, USA).
Briefly, HUVEC cells were seeded in 35 mm dishes. At confluence of 90%, artificial gap was created using 1,000 μl standard pipette tip. Plate was washed twice with PBS to remove cell debris and incubated with either peptide 16 or 16AC (10 μg/ml).

[5] = system: HEK-293 cells with full length TF (TF) or truncated TF; test: p-p38 signaling in TF-transfected HEK-293 cells (western blot); format: cell-based; details: 2 hours; cells with truncated TF devoid of the intracellular part
Description: FIG. 12 includes a vertical bar graph and a micrograph of a western blot analysis. Procoagulant peptide 16AC was added for 2 hours to transfected HEK-293 cells with full length TF (TF) or truncated TF devoid of the intracellular part (ΔTF). […] Control—vector only (Vo); transfection with the empty plasmid, with no additional DNA.
Additionally, the inventor explored binding interaction between the procoagulant peptide of the invention and TF. Briefly, the procoagulant peptide 16AC was added for 2 hours to transfected HEK-293 cells with full length TF (TF) or truncated TF devoid of the intracellular part (ATF).

Sequence of lipidated TF, factor VIIa, factor X (P13726 33-295): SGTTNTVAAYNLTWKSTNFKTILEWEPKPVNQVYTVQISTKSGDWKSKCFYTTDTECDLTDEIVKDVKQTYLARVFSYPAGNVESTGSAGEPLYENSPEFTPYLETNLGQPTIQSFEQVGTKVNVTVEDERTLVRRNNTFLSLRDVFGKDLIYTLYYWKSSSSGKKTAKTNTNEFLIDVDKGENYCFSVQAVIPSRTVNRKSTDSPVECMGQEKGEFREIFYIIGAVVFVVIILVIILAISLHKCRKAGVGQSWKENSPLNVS
Sequence of lipidated TF, factor VIIa, factor X (P08709 61-212 partner limits assumed): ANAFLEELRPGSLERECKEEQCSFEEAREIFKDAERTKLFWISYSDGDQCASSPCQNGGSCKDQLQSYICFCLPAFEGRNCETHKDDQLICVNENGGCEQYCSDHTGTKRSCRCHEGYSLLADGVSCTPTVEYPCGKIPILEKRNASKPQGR
Sequence of lipidated TF, factor VIIa, factor X (P08709 213-466 partner limits assumed): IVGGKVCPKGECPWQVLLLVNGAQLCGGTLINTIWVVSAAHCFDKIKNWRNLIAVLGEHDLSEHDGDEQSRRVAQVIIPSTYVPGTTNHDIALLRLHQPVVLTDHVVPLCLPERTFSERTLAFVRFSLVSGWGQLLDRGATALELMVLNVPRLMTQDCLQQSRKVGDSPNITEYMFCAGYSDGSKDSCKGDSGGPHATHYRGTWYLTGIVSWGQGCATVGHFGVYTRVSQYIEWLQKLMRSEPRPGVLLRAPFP

Substance | Angle [1] [deg] | K [1] [min] | MA (maximal amplitude) [1] [mm] | R (time to clot formation) [1] [min] | SP [1] [min] | thrombus strength (maximal amplitude, MA), in words [1] | time to clot formation (R), in words [1] | cell proliferation [2] | activation of factor X (factor Xa level) [3] | migrating HUVEC cells [4] | clot formation compared to peptide 16 ([1]; 5 μg/ml, repeated 3 times with different pooled blood, FIG. 1C) | increase in p-p38 intracellular signaling [5]
GSKRRKLRVYLHCT [Peptide 16, peptide comprising the procoagulant domain of heparanase, non-modified] | 63.3 | 2.8 | 50.4 | 6.4 | 5.2 | increased thrombus strength | significantly reduced the time to clot formation (R) | significant increase in cell proliferation | significantly increased activation of factor X compared to control |  |  | 
acetyl-GSKRRKLRVYLHCT-amid (Ac-GSKRRKLRVYLHCT-NH2) [Peptide 16AC, peptide 16 comprising a C-terminal amid group and an N-terminal acetyl group] | 63.1 | 2.5 | 53.8 | 5.6 | 4.7 | increased thrombus strength | significantly reduced the time to clot formation (R) | significant increase in cell proliferation | significantly increased activation of factor X compared to control | substantial increase in migrating HUVEC cells | significant better effect to increase clot formation compared to peptide 16 | not observed
